Experimental data reported in the SangsterLogP compilation.

Assay: method code SF-AS, from DOI: 10.1021/bi00362a019, PMID: 3017413

Row | Compound | logP
1 | CCN(CC)c1ccc(C=NN=C(N)N)cc1 | 0.56
2 | NC(N)=N/N=C/c1ccc(Br)cc1 | 1.3
3 | CCOc1ccc(/C=N/N=C(N)N)cc1 | 0.24
4 | CC(C)(C)Oc1ccc(/C=N/N=C(N)N)cc1 | 1.38
5 | NC(N)=N/N=C/c1cccc([N+](=O)[O-])c1 | 0.01
6 | COc1ccc(/C=N/N=C(N)N)cc1 | 0.29
7 | NC(N)=N/N=C/c1ccc(Oc2ccccc2)cc1 | 1.87
8 | NC(N)=N/N=C/c1ccccc1[N+](=O)[O-] | 0.53
9 | NC(N)=N/N=C/c1ccc([N+](=O)[O-])cc1 | 0.87
10 | NC(N)=N/N=C/c1ccc(Cl)c([N+](=O)[O-])c1 | 0.53
11 | N=C(N)NN=Cc1ccc(Cl)cc1 | 0.96
12 | N=C(N)NN=Cc1ccc(-c2ccccc2)cc1 | 1.49
13 | CN(C)c1ccc(/C=N/N=C(N)N)cc1 | 0.28
